# From patent US5573772A, “Methods for protecting tissues and organs from ischemic damage” (priority 1994, dated 1996)
# Legend:
# heart = details: cited from earlier work
# isolated rabbit hearts [1] = test: Hemodynamic effects in non-ischemic, unpaced isolated rabbit hearts, Example 4; details: APNEA 500 nM
# Experimental: In an additional group of 3 hearts that were not made ischemic, 500 nM APNEA was infused for 1 minute. This group of hearts was not paced to control heart rate, and the effects of APNEA on spontaneous heart rate and coronary flow were measured to determine the hemodynamic effects of APNEA.
# isolated rabbit hearts [2] = test: Dose-response of APNEA on infarct size in isolated rabbit hearts, Example 4 (Table A)
# Experimental: New Zealand white rabbits of either sex, between 1.4-2.4 kg, were anesthetized with intravenous sodium pentobarbital (30 mg/kg). The neck was opened and a tracheotomy was performed. The rabbits were ventilated with 100% oxygen via a positive pressure respirator (MD industries, Mobile, Ala.). Ventilation rate was 30-35 breaths per minute, and tidal volume was approximately 15 ml. A left thoracotomy was performed in the fourth intercostal space and pericardium was opened to expose the heart. A 2-0 silk suture with an RB taper needle was passed around a branch of the left coronary artery, and the end of the silk were threaded through a small vinyl tube to form a snare. The heads were quickly excised and mounted on a Langendorff apparatus and perfused at constant pressure with Krebs buffer containing (in mM) 118.5 NaCl, 4.7 KCl, 1.2 MgSO4, 1.2 K2 PO4, 24.3 NaHCO3, 2.5 CaCl2 and 10 glucose. […] The temperature of the perfusate was maintained at 37° C. The perfusion pressure was kept at 75 mm Hg. Pacing electrodes were placed on the right atrium and all hearts were paced at 200 beats/minute with pulses of 5 volts and 4 msec duration to keep the heart rate constant. A fluid-filled latex balloon connected to a transducer via PE240 tubing was inserted into the left ventricle. Balloon volume was adjusted to set the left ventricular diastolic pressure at 10 mm Hg at the beginning of the experiment. Total coronary artery flow was measured by timed collection of buffer from the chamber into a graduated cylinder. Regional ischemia was effected by pulling the snare tight and clamping the tube with a hemostat. Global ischemia was performed by clamping the inflow tubing of the Langendorff apparatus. Reperfusion was achieved by releasing the restriction. All hearts were allowed to equilibrate for 20 minutes before the experiments were started. Heart rate (HR), coronary flow (CF) and left ventricular developed pressure (LVDP) were recorded at the point just before and at the end of each treatment with the pacing momentarily turned off.
# For the group to be exposed to ischemia, the silk suture under the coronary branch was tightly tied to occlude the artery at the end of each experiment, and a 0.5% suspension of fluorescent particles (1-10 um diameter from Duke Scientific Corp., Palo Alto, Calif.) were infused into the perfusate to mark the risk zone as the non-fluorescent tissue. The hearts were removed from the Langendorff apparatus, weighed and then frozen. The hearts were cut into 2 mm transverse slices. The slices were thawed and incubated in 1% triphenyl tetrazolium chloride (TTC) in pH 7.4 buffer for 20 minutes at 37° C. TTC reacts with NADH and dehydrogenase enzymes and stains all tissue still having them to a deep red color. […] After staining, the area of infarcted tissue (TTC negative tissue) and the risk zone (area lacking fluorescence under ultraviolet light) in each slice were traced. The area of infarct and risk zone were determined by planimetry of the tracing. The volume of infarcted myocardium and myocardium at risk was then calculated by multiplying the planimetered areas by the slice thickness.
# In this study, applicants examined the effects of varying the dosage of APNEA on myocardial infarct size in Langendorff buffer-perfused rabbit hearts subject to 30 minutes of regional ischemia and 2 hours reperfusion. The methods utilized in this example are identical to those described in Example 1.
# Six groups of hearts were studied: control untreated hearts (n=10); APNEA 0.5 nM (n=6); APNEA 5 nM (n=6); APNEA 50 nM (n=6); APNEA 500 nM (n=6); and APNEA 500 nM+DPCPX 200 nM.(n=6) In all cases, APNEA (0.5-500 nM) was infused for 5 minutes, beginning 15 minutes prior to 30 minutes of ischemia. The regional ischemia was produced by occlusion of the coronary artery, followed by 120 minutes of reperfusion.
# [3] = test system: A3 adenosine receptor (R226); details: cited from earlier work
# [4] = test system: intact, blood perfused rabbit heart; test: Infarct size in the intact anesthetized rabbit, 30 min ischemia and reperfusion, Example 2
# Experimental: In this study, the effect of the adenosine receptor agonist, I-APNEA, on infarct size in the anesthetized rabbit was compared to the protection observed with ischemic preconditioning (PC).
# New Zealand White rabbits (1.5-2.5 kg) were anaesthetized with pentobarbital sodium (40 mg/kg) administered via a catheter in a marginal ear vein. The animals were intubated with a pediatric cuffed endotracheal tube and ventilated with room air using a positive pressure respirator (Harvard Apparatus, Natick, Mass.). The heart was exposed in situ via an incision between the left 4th and 5th ribs, and a branch of the left coronary artery was isolated, using a 3-0 silk suture on RB-taper needle, for later ligation to induce 30 minutes of ischemia followed by 180 minutes of reperfusion. A catheter inserted into a femoral vein was used for administration of fluids and drugs. Infarct size was measured using the method described in the section entitled "Measurement of Infarct Size and Risk Area" in Example 1.
# All animals received 30 minutes of regional ischemia, induced by tightening the suture placed around the coronary artery. Following the 30 minutes of ischemia, the suture was loosened, and reperfusion was allowed for the ensuing 180 minutes. Control animals received only the 30 minutes of ischemia and 180 minutes of reperfusion (n=9). Ischemic preconditioning (PC) was induced by 5 minutes of occlusion of the coronary artery followed by 10 minutes of reperfusion before the 30 minutes of occlusion (n=7). In a separate group of rabbits, I-APNEA was delivered intravenously as a slow bolus injection (0.25 mg/kg), beginning 15 minutes prior to the 30 minutes occlusion (n=8). In two additional groups of rabbits, the effects of the A1-selective adenosine receptor blocker, DPCPX, were tested against the effects of PC (n=6) and I-APNEA (n=8). […] At the end of 120 minutes of reperfusion, all animals were killed by an overdose of pentobarbital, and risk area and infarct size were measured.
# intact rabbit = test: Bradycardia and mean arterial pressure in the anesthetized rabbit, Example 2; details: DPCPX 0.5 mg/kg IV
compound,measurement,setting,value
"Nc1ncnc2c1ncn2[C@@H]1O[C@H](CO)[C@@H](O)[C@H]1O [ADO, Adenosine]",Sensation of anginal pain,heart; in vivo,mediator of the sensation of anginal pain
same,Hypotension,heart; intravenous injection at doses required for ischemic preconditioning,too much hypotension
"Nc1ccc(CCNc2ncnc3c2ncn3[C@@H]2O[C@H](CO)[C@@H](O)[C@H]2O)cc1 [APNEA, N^6-(2-(4-aminophenyl)ethyl) adenosine]",Coronary flow after APNEA,"isolated rabbit hearts [1]; 1 minute, before 50±9, 3 hearts",58 ± 6 mL/min
same,Heart rate after APNEA,"isolated rabbit hearts [1]; 1 minute, before 178±7, 3 hearts",169±3 beats/min
same,Effect on heart rate or coronary flow,isolated rabbit hearts [1]; non-ischemic hearts,no effect on heart rate or coronary flow
same,Effect on infarct size compared to untreated control,isolated rabbit hearts [2]; APNEA 0.5 nM,no effect on infarct size
same,Infarct Area,isolated rabbit hearts [2]; APNEA 5 nM,14 ± 3 % of Risk
same,Infarct Area,isolated rabbit hearts [2]; APNEA 50 nM,14 ± 3 % of Risk
same,Infarct Area,isolated rabbit hearts [2]; APNEA 500 nM,8 ± 1 % of Risk
same,Infarct Area,isolated rabbit hearts [2]; APNEA 500 nM + DPCPX 200 nM,15 ± 5 % of Risk
same,Effect on infarct size,"isolated rabbit hearts [2]; APNEA 5, 50, and 500 nM",reduced infarct size
same,Infarct Area,"isolated rabbit hearts [2]; APNEA .5 nM, control 24 ± 1",22 ± 5 % of Risk
"CCCn1c(=O)c2[nH]c(C3CCCC3)nc2n(CCC)c1=O [DPCPX, 8-cyclopentyl-1,3-dipropylxanthine]",Binding to R226,[3],not to bind
same,Blockade of APNEA's infarct size reduction,isolated rabbit hearts [2]; DPCPX 200 nM + APNEA 500 nM,not blocked
same,Infarct size,[4]; DPCPX 0.5 mg/kg IV + I-APNEA 0.25 mg/kg,28±8.0%
same,Infarct size,[4]; DPCPX 0.5 mg/kg IV + PC,7±1.8%
same,Effect on bradycardia associated with activation of the A1 adenosine receptor,intact rabbit,abolish
same,Effect on fall in mean arterial pressure with I-APNEA or R-PIA,"intact rabbit; I-APNEA 0.25 mg/kg or R-PIA 1 mg/kg, iv",attenuated
